# Legend:
# [1] = system: A2780 cells; assay: Protein expression by western blot; type: cell-based, human; details: A2780, 0.1 μM to 10 μM, 48 h
# Experimental: The influence of RX-3117 on protein expression during different treatment conditions was analyzed by western blot. Cells were lysed using 1× cell lysis buffer (Cell Signaling, Danvers, Mass., USA) containing 4% protease inhibitor cocktail (Roche Diagnostics, Mannheim, Germany) on ice for 30 minutes and centrifuged for 10 minutes at 4° C. at 14,000 rpm. Bio-Rad assay was performed to determine protein amount in the collected supernatant as described earlier (Lemos C, Kathmann I, Giovannetti E, Calhau C, Jansen G and Peters G J: Impact of cellular folate status and epidermal growth factor receptor expression on BCRP/ABCG2-mediated resistance to gefitinib and erlotinib. Br J Cancer 100: 1120-7, 2009). The following antibodies were used for protein expression: γH2A.X (cat#9718, Cell Signaling, 1:1000), β-actin (Sigma, 1:10,000), Cdc25C Ser216 (cat#4901, Cell Signaling, 1:1000), Cdk1 Tyr15 (cat#9111, Cell Signaling, 1:1000), […] (cat#2197S, Cell Signaling, 1:1000), Histone 3 (cat#4499, Cell Signaling). Antibodies were diluted in 1:1 solution with Rockland buffer (Rockland Inc, Philadelphia, Pa.) and phosphate buffered saline (PBS) supplemented with 0.05 Tween 20. Proteins were separated in 20% SDS-PAGE gel and transferred to polyvinylidene difluoride (PVDF) membrane. […] Proteins were detected by an Odyssey InfraRed Imager (Li-COR Bioscience, Lincoln, Nebr.).
# [2] = Open-label dose-ranging study: pharmacokinetics, safety and tolerability of oral doses; type: in vivo, human; details: for AUC(0-t): AUC0-24
# Experimental: In an open-label, dose-ranging study, the pharmacokinetics (PK) of RX-3117 at various oral doses was evaluated. Subjects with advanced malignant tumors were administered capsules containing RX-3117 at daily doses of 30 mg (N=1), 60 mg (N=1), 100 mg (N=3), 150 mg (N=3), 200 mg (N=3), 500 mg (N=3), 1000 mg (N=3), 1500 mg (N=4), and 2000 mg (N=5 to date) 3 times a week (TIWK) for 3 weeks with 1 week off during each 4 week cycle. Based on the continued safety profile, and to enhance weekly RX-3117 exposure, more frequent dosing was also implemented. In addition to the TIWK dosing scheme discussed above, subjects also received 500 mg and 700 mg 5 times a week, and 500 mg for 7 times a week for 3 weeks with 1 week off during each 4 week cycle. Dose escalation began with an accelerated design treating 1 subject per dose (Simon et al., J Natl. Cancer Inst., 89(15):1138-47 (1997) followed by a standard 3+3 design using a modified Fibonacci sequence after the occurrence of a single related Grade 2 or greater adverse event. Table 3 summarizes the dosing schedule.
# The efficacy, safety and tolerability of RX-3117 at various doses and frequencies were evaluated (see Example 4, above). Subjects with advanced malignant tumors were administered capsules containing RX-3117 at various doses, from TIWK to 7 times per week for 3 weeks with 1 week off during each 4-week cycle. Dose escalation begins with an accelerated design treating 1 subject per dose (Simon et al., J. Natl. Cancer Inst., 89(15):1138-47 (1997) followed by a standard 3+3 design using a modified Fibonacci sequence after the occurrence of a single related Grade 2 or greater adverse event. Table 4 (above) summarizes the dosing schedule.
# [3] = system: SW1573; details: as reported in Peters et al. 2013; cited from earlier work
smiles,measurement,setting,value
"Nc1ccn([C@@H]2C(F)=C(CO)[C@@H](O)[C@H]2O)c(=O)n1 [RX-3117, 4-amino-1-((1S,4R,5S)-2-fluoro-4,5-dihydroxy-3-hydroxymethyl-cyclopent-2-enyl)-1H-pyrimidin-2-one]",γH2A.X S139 induction,[1],induction of γH2A.X S139 in a dose dependent manner
same,maximum tolerated dose (MTD),"[2]; 5 days per week, three weeks with 1 week off per 4-week cycle",700 mg daily
same,maximal tolerated dose,"[2]; Phase I clinical study, as stated in Example 7","higher than 2,000 mg/day"
same,"apparent terminal T1/2, mean values","[2]; human, in vivo",12.3 to 20.2 h
same,dose limiting toxicities,"[2]; human, in vivo","Grade 3 anemia, thrombocytopenia"
same,share of AUC0-t (0-24 hours) observed in the first 8 hours,"[2]; human, in vivo",about half
same,share of AUC observed by 24 hours,"[2]; human, in vivo",over 80%
same,half-life,"[2]; human, in vivo, apparent terminal T1/2, mean values",11.6 to 16.7 h
same,Tmax,"[2]; human, in vivo, po, 30 mg, Tmax",2 h
same,AUC0-24,"[2]; human, in vivo, po, 60 mg",1164 ng·h/mL
same,Cmax,"[2]; human, in vivo, po, 60 mg",139 ng/mL
same,T1/2,"[2]; human, in vivo, po, 60 mg",16.2 h
same,AUC(0-t),"[2]; human, in vivo, po, 60 mg",1570 ng·h/mL
same,Cmax,"[2]; human, in vivo, po, 60 mg, Cmax",113 ng/mL
same,half-life,"[2]; human, in vivo, po, 60 mg, T1/2",15.7 h
same,Tmax,"[2]; human, in vivo, po, 60 mg, Tmax",4 h
same,AUC0-24,"[2]; human, in vivo, po, 100 mg",2714 ng·h/mL
same,Cmax,"[2]; human, in vivo, po, 100 mg",357 ng/mL
same,T1/2,"[2]; human, in vivo, po, 100 mg",15.4 h
same,AUC(0-t),"[2]; human, in vivo, po, 100 mg",3290 ng·h/mL
same,Cmax,"[2]; human, in vivo, po, 100 mg, Cmax",460 ng/mL
same,half-life,"[2]; human, in vivo, po, 100 mg, T1/2",20.2 h
same,Tmax,"[2]; human, in vivo, po, 100 mg, Tmax",2 h
same,AUC0-24,"[2]; human, in vivo, po, 150 mg",2437 ng·h/mL
same,Cmax,"[2]; human, in vivo, po, 150 mg",360 ng/mL
same,T1/2,"[2]; human, in vivo, po, 150 mg",15.1 h
same,AUC(0-t),"[2]; human, in vivo, po, 150 mg",3550 ng·h/mL
same,Cmax,"[2]; human, in vivo, po, 150 mg, Cmax",511 ng/mL
same,half-life,"[2]; human, in vivo, po, 150 mg, T1/2",13.9 h
same,Tmax,"[2]; human, in vivo, po, 150 mg, Tmax",3 h
same,AUC0-24,"[2]; human, in vivo, po, 200 mg",4574 ng·h/mL
same,Cmax,"[2]; human, in vivo, po, 200 mg",643 ng/mL
same,T1/2,"[2]; human, in vivo, po, 200 mg",16.2 h
same,AUC(0-t),"[2]; human, in vivo, po, 200 mg",4720 ng·h/mL
same,Cmax,"[2]; human, in vivo, po, 200 mg, Cmax",637 ng/mL
same,half-life,"[2]; human, in vivo, po, 200 mg, T1/2",13.3 h
same,Tmax,"[2]; human, in vivo, po, 200 mg, Tmax",2 h
same,Tmax,"[2]; human, in vivo, po, 500 mg",2.5 h
same,AUC(0-t),"[2]; human, in vivo, po, 500 mg",7920 ng·h/mL
same,Cmax,"[2]; human, in vivo, po, 500 mg, Cmax",1100 ng/mL
same,Tmax,"[2]; human, in vivo, po, 500 mg, Tmax",2 h
same,AUC0-24,"[2]; human, in vivo, po, 700 mg",6321 ng·h/mL
same,Cmax,"[2]; human, in vivo, po, 700 mg",674 ng/mL
same,T1/2,"[2]; human, in vivo, po, 700 mg",11.2 h
same,AUC(0-t),"[2]; human, in vivo, po, 700 mg",8660 ng·h/mL
same,Cmax,"[2]; human, in vivo, po, 700 mg, Cmax",989 ng/mL
same,half-life,"[2]; human, in vivo, po, 700 mg, T1/2",9.05 h
same,Tmax,"[2]; human, in vivo, po, 700 mg, Tmax",3 h
same,AUC0-24,"[2]; human, in vivo, po, 1000 mg",9753 ng·h/mL
same,Cmax,"[2]; human, in vivo, po, 1000 mg",1210 ng/mL
same,T1/2,"[2]; human, in vivo, po, 1000 mg",14.9 h
same,AUC(0-t),"[2]; human, in vivo, po, 1000 mg",12200 ng·h/mL
same,Cmax,"[2]; human, in vivo, po, 1000 mg, Cmax",1640 ng/mL
same,half-life,"[2]; human, in vivo, po, 1000 mg, T1/2",11.6 h
same,Tmax,"[2]; human, in vivo, po, 1000 mg, Tmax",2 h
same,Cmax,"[2]; human, in vivo, po, 1500 mg",883 ng/mL
same,T1/2,"[2]; human, in vivo, po, 1500 mg",13.8 h
same,Cmax,"[2]; human, in vivo, po, 1500 mg, Cmax",1620 ng/mL
same,half-life,"[2]; human, in vivo, po, 1500 mg, T1/2",11.8 h
same,Tmax,"[2]; human, in vivo, po, 1500 mg, Tmax",3 h
same,AUC0-24,"[2]; human, in vivo, po, 2000 mg",17403 ng·h/mL
same,Cmax,"[2]; human, in vivo, po, 2000 mg",1703 ng/mL
same,T1/2,"[2]; human, in vivo, po, 2000 mg",12.1 h
same,AUC(0-t),"[2]; human, in vivo, po, 2000 mg",17000 ng·h/mL
same,Cmax,"[2]; human, in vivo, po, 2000 mg, Cmax",1860 ng/mL
same,half-life,"[2]; human, in vivo, po, 2000 mg, T1/2",13.3 h
same,Tmax,"[2]; human, in vivo, po, 2000 mg, Tmax",3 h
same,Tmax,"[2]; human, in vivo, po, median Tmax",2 to 3 h
same,accumulation,[2]; in vivo,generally minimal
same,most frequent related adverse events,[2]; in vivo,"moderate to severe anemia, mild to moderate fatigue and nausea, mild diarrhea, vomiting, and anorexia"
same,most frequently observed adverse events,[2]; in vivo,"mild to moderate fatigue and nausea, mild diarrhea, mild vomiting, mild anorexia and moderate dehydration"
same,IC50,[3],13.7 µM
